Test results from ChEMBL document CHEMBL1201862, “PubChem BioAssay data set” (2004).
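Five concentrations, 48 hours, 96-well plates. The concentration for 50% growth inhibition is given as GI50.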 Calls of active or inactive are those of the source. No stated cut-off is given here; in the data, active = GI50 up to about 1.1 µM and inactive = higher.

Columns and labels:
Assay in all cases: NCI anticancer screen, dose series, 48 h
[1] = system: HT-29
[2] = system: Hs-578T
[3] = system: A549
[4] = system: NCI-H23
[5] = system: SK-OV-3
[6] = system: U-251
[7] = system: BT-549
[8] = system: OVCAR-5
[9] = system: KM12
[10] = system: HOP-92
[11] = system: IGROV-1
[12] = system: EKVX
[13] = system: SF-539
[14] = system: HCC 2998
[15] = system: SNB-75
[16] = system: HCT-116
[17] = system: NCI-H226
[18] = system: LOX IMVI
[19] = system: UO-31

SMILES | GI50 [1] | GI50 [2] | GI50 [3] | GI50 [4] | GI50 [5] | GI50 [6] | GI50 [7] | GI50 [8] | GI50 [9] | GI50 [10] | GI50 [11] | GI50 [12] | GI50 [13] | GI50 [14] | GI50 [15] | GI50 [16] | GI50 [17] | GI50 [18] | GI50 [19]
CC(=O)Nc1ccc2nc(-c3cccc(Cl)c3)cc(O)c2c1 | 11.2 µM (inactive) | 2.59 µM (inactive) | 54.7 µM (inactive) | 35.6 µM (inactive) | 0.787 µM (active) | 3.65 µM (inactive) | 15.4 µM (inactive) | 68.4 µM (inactive) | 4.83 µM (inactive) | 4.85 µM (inactive) | 13.4 µM (inactive) | > 100 µM (inactive) | 4.71 µM (inactive) | 8.38 µM (inactive) | 4.4 µM (inactive) | – | – | – | –
COc1ccc(-n2sc3ncc([N+](=O)[O-])cc3c2=O)cc1 | > 100 µM (inactive) | 32.1 µM (inactive) | > 100 µM (inactive) | > 100 µM (inactive) | > 100 µM (inactive) | > 100 µM (inactive) | > 100 µM (inactive) | > 100 µM (inactive) | > 100 µM (inactive) | – | > 100 µM (inactive) | > 100 µM (inactive) | > 100 µM (inactive) | > 100 µM (inactive) | > 100 µM (inactive) | > 100 µM (inactive) | > 100 µM (inactive) | > 100 µM (inactive) | > 100 µM (inactive)
CS(=O)(=O)N1CC(CI)c2ccc(O)cc21 (configuration not stated) | 3.4 µM (inactive) | 3.41 µM (inactive) | 3.56 µM (inactive) | 1.32 µM (inactive) | – | 2.49 µM (inactive) | 3.68 µM (inactive) | 2.29 µM (inactive) | 3.59 µM (inactive) | 2.18 µM (inactive) | 3.98 µM (inactive) | 3.74 µM (inactive) | 2.99 µM (inactive) | 2.08 µM (inactive) | 1.79 µM (inactive) | 2.98 µM (inactive) | 3.5 µM (inactive) | 3.21 µM (inactive) | 3.35 µM (inactive)
O=S(=O)(/N=C(\NO)Nc1ccc(Cl)cc1)C1CC=C(c2ccon2)S1 (configuration not stated) | 42.7 µM (inactive) | 14.7 µM (inactive) | 32.1 µM (inactive) | 13.2 µM (inactive) | > 100 µM (inactive) | 15.8 µM (inactive) | 12.3 µM (inactive) | > 66.2 µM (inactive) | 46.5 µM (inactive) | 10.3 µM (inactive) | 11.6 µM (inactive) | 31 µM (inactive) | 1.2 µM (inactive) | 15.3 µM (inactive) | – | 15.6 µM (inactive) | 13.4 µM (inactive) | 21 µM (inactive) | 9.55 µM (inactive)
Cc1cc(C)nc(NS(=O)(=O)c2ccc(Nc3c4ccccc4nc4c(C(=O)NCCCN(CCO)CCO)cccc34)cc2)n1 | 12.9 µM (inactive) | 6.67 µM (inactive) | 26.4 µM (inactive) | 29.4 µM (inactive) | 50.1 µM (inactive) | 13.9 µM (inactive) | 11.6 µM (inactive) | 26.4 µM (inactive) | 12.6 µM (inactive) | 5.18 µM (inactive) | 15.5 µM (inactive) | 36.6 µM (inactive) | – | 16.7 µM (inactive) | 3.35 µM (inactive) | – | – | 10.3 µM (inactive) | 42 µM (inactive)
CCOC(=O)c1nc2cc(C(F)(F)F)ccc2nc1Nc1ccc(C(=O)OC)s1 | 37.1 µM (inactive) | 29.8 µM (inactive) | 48.6 µM (inactive) | 30 µM (inactive) | 47.3 µM (inactive) | 29.6 µM (inactive) | 25.7 µM (inactive) | > 100 µM (inactive) | 38.7 µM (inactive) | 17.9 µM (inactive) | 40.9 µM (inactive) | 45.9 µM (inactive) | – | 36.1 µM (inactive) | 56.1 µM (inactive) | 35.3 µM (inactive) | 27 µM (inactive) | 30.5 µM (inactive) | 33.3 µM (inactive)
CCOC(=O)/C(C#N)=C(/NS(=O)(=O)c1cc(C)c(Cl)cc1[S-])[n+]1ccc(N(C)C)cc1 | > 100 µM (inactive) | > 100 µM (inactive) | > 100 µM (inactive) | > 100 µM (inactive) | > 100 µM (inactive) | > 100 µM (inactive) | > 100 µM (inactive) | > 100 µM (inactive) | > 100 µM (inactive) | 27.4 µM (inactive) | > 100 µM (inactive) | > 100 µM (inactive) | > 100 µM (inactive) | > 100 µM (inactive) | – | > 100 µM (inactive) | > 100 µM (inactive) | – | > 100 µM (inactive)
Cc1csc2nc(-c3cc([N+](=O)[O-])c(Cl)cc3Cl)c(/C=N/N=C(N)N)n12 | 16.1 µM (inactive) | 15.4 µM (inactive) | 19 µM (inactive) | 16.4 µM (inactive) | – | 16.6 µM (inactive) | 14.6 µM (inactive) | 17.4 µM (inactive) | 14.4 µM (inactive) | 14.4 µM (inactive) | 16.4 µM (inactive) | 19.7 µM (inactive) | 18.7 µM (inactive) | 7.19 µM (inactive) | – | 16.7 µM (inactive) | 18.5 µM (inactive) | 16.7 µM (inactive) | 16 µM (inactive)
CCOC(=O)c1c(N)sc2c1C(C(=O)OCC)CCCC2 (configuration not stated) | > 100 µM (inactive) | 43.9 µM (inactive) | 88.9 µM (inactive) | 62.1 µM (inactive) | – | 66.5 µM (inactive) | > 100 µM (inactive) | > 100 µM (inactive) | > 100 µM (inactive) | 75.5 µM (inactive) | > 100 µM (inactive) | 85.3 µM (inactive) | – | 76.9 µM (inactive) | > 100 µM (inactive) | 43.1 µM (inactive) | > 100 µM (inactive) | – | 37.6 µM (inactive)
CCCCc1ccc(Nc2nc3c(ncn3C3CC(O)C(CN=[N+]=[N-])O3)c(=O)[nH]2)cc1 (configuration not stated) | > 100 µM (inactive) | > 100 µM (inactive) | > 100 µM (inactive) | > 100 µM (inactive) | > 100 µM (inactive) | > 100 µM (inactive) | > 100 µM (inactive) | > 100 µM (inactive) | > 100 µM (inactive) | > 100 µM (inactive) | > 100 µM (inactive) | > 100 µM (inactive) | – | > 100 µM (inactive) | > 100 µM (inactive) | > 100 µM (inactive) | > 100 µM (inactive) | > 100 µM (inactive) | > 100 µM (inactive)
COc1ccc2c(c1)-c1c(c3cc(OC)ccc3n1CCN1CCOCC1)CC2 | 13.5 µM (inactive) | 16.6 µM (inactive) | 23.9 µM (inactive) | 52.1 µM (inactive) | > 100 µM (inactive) | 29.4 µM (inactive) | 28.4 µM (inactive) | 25.4 µM (inactive) | 22.6 µM (inactive) | 24.4 µM (inactive) | 18.1 µM (inactive) | – | 28.4 µM (inactive) | 1.76 µM (inactive) | 19.8 µM (inactive) | 27.2 µM (inactive) | 14.7 µM (inactive) | – | 24.5 µM (inactive)
COC1=C[C@]2(CCC(=O)O2)[C@@H]2Cc3ccccc3[C@H](O)[C@@H]2C1=O | > 100 µM (inactive) | > 100 µM (inactive) | > 100 µM (inactive) | 40.3 µM (inactive) | > 100 µM (inactive) | 27.7 µM (inactive) | 49.3 µM (inactive) | > 100 µM (inactive) | > 100 µM (inactive) | 78.3 µM (inactive) | 82.6 µM (inactive) | > 100 µM (inactive) | – | > 100 µM (inactive) | – | 30.5 µM (inactive) | 86.5 µM (inactive) | 28.7 µM (inactive) | 39.8 µM (inactive)
Cc1ccc(Nc2nnc3n2S(=O)(=O)c2cc(C)c(Cl)cc2S3)cc1 | 10.3 µM (inactive) | 2.89 µM (inactive) | 8.39 µM (inactive) | 8.95 µM (inactive) | – | 4.66 µM (inactive) | 5.28 µM (inactive) | 14.1 µM (inactive) | 6.56 µM (inactive) | 4.89 µM (inactive) | 4.4 µM (inactive) | 25.4 µM (inactive) | 3.77 µM (inactive) | 18.2 µM (inactive) | 6.93 µM (inactive) | 6.37 µM (inactive) | 10.7 µM (inactive) | 6.14 µM (inactive) | 17.3 µM (inactive)
O=C1CCCCC/C1=C\c1ccc(F)cc1 | > 100 µM (inactive) | 86.1 µM (inactive) | > 100 µM (inactive) | > 100 µM (inactive) | > 100 µM (inactive) | 98.6 µM (inactive) | 99.1 µM (inactive) | > 100 µM (inactive) | > 100 µM (inactive) | 61.1 µM (inactive) | > 100 µM (inactive) | > 100 µM (inactive) | – | > 100 µM (inactive) | > 100 µM (inactive) | 89.3 µM (inactive) | > 100 µM (inactive) | 94 µM (inactive) | 42.4 µM (inactive)
NC(=O)NC(=O)c1cccc(NC(=O)CBr)c1 | < 0.0168 µM (active) | < 0.0206 µM (active) | 0.912 µM (active) | < 0.0195 µM (active) | 0.0272 µM (active) | < 0.018 µM (active) | < 0.02 µM (active) | < 0.0204 µM (active) | 0.0216 µM (active) | < 0.0216 µM (active) | 0.0266 µM (active) | 0.766 µM (active) | < 0.0362 µM (active) | 0.282 µM (active) | – | < 0.01 µM (active) | < 0.0188 µM (active) | < 0.01 µM (active) | 0.209 µM (active)
CC(C)(C)c1ccc(-c2nc3ccc([N+](=O)[O-])cc3c(=O)o2)cc1 | 24.7 µM (inactive) | 25.2 µM (inactive) | 28.9 µM (inactive) | 28.7 µM (inactive) | 31.5 µM (inactive) | 15 µM (inactive) | 24.1 µM (inactive) | 32.8 µM (inactive) | 20 µM (inactive) | 15.6 µM (inactive) | 44.2 µM (inactive) | 25.4 µM (inactive) | 17.1 µM (inactive) | 12.9 µM (inactive) | 24.9 µM (inactive) | 23.4 µM (inactive) | – | 15.3 µM (inactive) | 32.9 µM (inactive)
